Patent publication US6001880A, “Alkylenediamine derivative, anti-ulcer drug, and antibacterial drug” (Shiseido Co., Ltd., priority 1997, dated 1999)

system: stress ulcer formation in rats; assay: WIS: Restraint and Water Immersion Stress-Induced Ulcer Inhibition Test; format: in vivo, rat (male Crj:SD or Slc:SD); details: 100 mg/kg oral, 10 minutes before 7 h restraint and water immersion (21° C.)
Protocol: WIS: Restraint and Water Immersion Stress-Induced Ulcer Inhibition Test
The degree of inhibition of the stress ulcer formation is tested.
Male Crj:SD or Slc:SD rats (6 to 7-week-old) were fasted overnight, but allowed free access to water. Each group has 5 to 8 of these rats. The sample compound was dissolved or suspended in an aqueous solution of 0.3% sodium carboxymethylcellulose or 0.05% Tween 80 and then was orally administered (100 mg/10 ml/kg). To a control group, the vehicle was administered. 10 minutes later, the rats were placed in a stress cage and immersed to the level of xipfoid process in a water bath (21° C.) for 7 hours. At the end of the stress, the rats were sacrificed by inhalation of ether or carbon dioxide. Then, the stomach of each was removed, inflated by injecting 10 ml of 5% formalin neutral buffer solution, and immersed in 1% formalin neutral buffer solution for 30 minutes or more to be fixed. The stomach was incised along the greater curvature and then the length of each erosion in the glandular portion was determined under dissecting microscope. The sum of the length of erosions per stomach was defined as ulcer index (UI).
The effect obtained when 100 mg/kg of the sample compound had been administered was expressed as ulcer formation inhibitory rate (%) as follows:
ulcer formation inhibitory rate (%)=(1-(UI in sample group/UI in control

Row | SMILES | WIS: ulcer formation inhibitory rate [%]
1 | CCN(CC)CCNC(=O)c1cccc(OC)c1OC/C=C(\C)CCC=C(C)C [Example 31] | 73
2 | CCN(CC)CCNC(=O)c1ccc(OC)cc1OC/C=C(\C)CCC=C(C)C [Example 32] | 73
3 | CCN(CC)CCNC(=O)c1cc(OC)ccc1OC/C=C(\C)CCC=C(C)C [Example 33] | 67
4 | CCN(CC)CCNC(=O)c1cc(F)ccc1OC/C=C(\C)CCC=C(C)C [Example 35] | 81
5 | CCN(CC)CCNC(=O)c1ccc(OC/C=C(\C)CCC=C(C)C)nc1 [Example 50] | 42
6 | CC(C)=CCC/C(C)=C/COc1ccc(C(=O)NCCN(C(C)C)C(C)C)cn1 [Example 51] | 72
7 | CCN(CC)CCNC(=O)c1ccc(CC(C)C)c(O)c1 [Example 56] | 69
8 | CC(C)Cc1cc(C(=O)NCCN(C(C)C)C(C)C)ccc1OCc1ccc(F)cc1 [Example 57] | 45
9 | CC(C)Oc1ccc(C(=O)NCCN(C(C)C)C(C)C)cc1 [Example 59] | 89
10 | CCCCCc1ccc(C(=O)NCCN(C(C)C)C(C)C)cc1 [Example 62] | 72
11 | CC(C)c1ccc(C(=O)NCCN(C(C)C)C(C)C)cc1 [Example 64] | 82
12 | CC(C)N(CCNC(=O)c1ccc(NC(C)(C)C)cc1)C(C)C [Example 68] | 79

system: isolated gastric fundic gland; assay: CAP: Acid Secretion Inhibition Test In Vitro ([14C]-aminopyrine uptake); format: cell-based, rabbit (male Japanese White); details: Oryctolagus cuniculus; final concentration 10^-5 M; histamine 10^-5 M stimulation; read-out: CAP: acid secretion inhibitory rate
Protocol: CAP: Acid Secretion Inhibition Test In Vitro
The acid secretion inhibitory activity in a cell level is studied. It can also be used for studying the mechanism of the effect.
First, an isolated gastric fundic gland sample was prepared. Namely, a male Japanese White rabbit (2.5 to 3 kg) was anesthetized to death with Nembutal™ and then the abdomen was incised. Immediately thereafter, the stomach was removed and, after its pyloric and cardiac antrum were severed, incised along its greater curvature into two sheets. The gastric contents adhering to the mucosal surface was washed out with ice-cooled PBS (-) and then carefully washed therein. The gastric wall was spread on a cork board with its mucosal surface facing up and the feed and mucus thereon were completely removed with sterile gauze. The mucosa was separated therefrom by a spatula and then collected in ice-cooled PBS (-). After being washed twice with PBS (-), the mucosa was minced into 2-3 mm^3 pieces by scissors. These pieces were further washed twice with a nutrient solution. The nutrient solution comprises 132.4 mM of NaCl, 5.4 mM of KCl, 5 mM of Na2 HPO4. 12H2 O, 1 mM of NaH2 PO4.2H2 O, 1.2 mM of MgSO4, 1 mM of CaCl2, 25 mM of HEPES, 2 mg/ml of glucose, and 1 mg/ml of BSA.
Into 70 ml of the nutrient solution containing 1 mg/ml of collagenase, minced mucosal pieces were dispersed and intensely stirred in a conical flask with a stirrer at 37° C. for 40 to 60 minutes. During this period, 100% O2 was sprayed on the nutrient solution surface and the pH was appropriately measured such that it was immediately adjusted to pH 7.4, when the value was therebelow, with a base. The nutrient solution was added to the reaction solution so as to attain the total amount of about 200 ml. After being filtered through a mesh, the suspension was divisionally introduced into 50 ml centrifuge tubes and left for 15 minutes such that gastric fundic gland was deposited. The supernatant was repeatedly removed by an aspirator, dispersed in the nutrient solution, and then left such that the gastric fundic gland was washed three times. At this time, without using a pipette, the suspension was alternately introduced into two centrifuge tubes so as to effect dispersion. The number of cells was counted under microscope and adjusted to 1.6×10^6 cells/ml.
Then, [^14 C]-aminopyrine uptake test was performed. After an Eppendorf tube was weighed, 10 μl (final concentration: 10^-5 M) of histamine dissolved in the above-mentioned nutrient solution, 10 μl (final concentration: […]) of the test compound dissolved in DMSO, and 10 μl (final concentration: 0.05 μCi/ml) of [^14 C]-aminopyrine diluted with the nutrient solution were introduced therein and then 970 μl of the isolated gastric fundic gland suspension prepared above was added thereto. Subsequently, this mixture was shaken at 37° C. for 40 minutes at 125 cycles/minute. After being centrifuged for 30 seconds, 200 μl of its supernatant was collected into a mini-vial, while the rest was removed by an aspirator. The gland pellet was completely dried as the tube with its lid being opened was kept for one night in a drying oven at 80° C. and then the lid was closed and the weight was determined at room temperature. Then 100 μl of 1N KOH was added thereto and the tube with its lid being closed was treated at 60° C. for 1 to 2 hours so as to dissolve the pellet. Then, the contents thereof were transferred to a mini-vial. Into the mini-vial containing the supernatant or gland pellet, 4 ml of Atomlite™ was added and then the radioactivity was measured by a liquid scintillation counter. Here, after the radioactivity of the gland pellet was corrected by using a sample in which 20 mM of NaSCN was added so as to cancel the hydrogen ion concentration gradient, the integration ratio of aminopyrine specifically trapped by the gland pellet was calculated. This experiment was performed in duplicate.
Here, its principle will be briefly explained. […]

Row | SMILES | inhibition at 10 µM [%]
13 | CCN(CC)CCNC(=O)c1cccc(OC)c1OC/C=C(\C)CCC=C(C)C [Example 31] | 100
14 | CCN(CC)CCNC(=O)c1ccc(OC)cc1OC/C=C(\C)CCC=C(C)C [Example 32] | 100
15 | CCN(CC)CCNC(=O)c1cc(OC)ccc1OC/C=C(\C)CCC=C(C)C [Example 33] | 100
16 | CCN(CC)CCNC(=O)c1cc(F)ccc1OC/C=C(\C)CCC=C(C)C [Example 35] | 105
17 | CCN(CC)CCNC(=O)c1ccc(OC/C=C(\C)CCC=C(C)C)nc1 [Example 50] | 95.2
18 | CC(C)=CCC/C(C)=C/COc1ccc(C(=O)NCCN(C(C)C)C(C)C)cn1 [Example 51] | 94.7
19 | CCN(CC)CCNC(=O)c1ccc(CC(C)C)c(O)c1 [Example 56] | 53.4
20 | CC(C)Cc1cc(C(=O)NCCN(C(C)C)C(C)C)ccc1OCc1ccc(F)cc1 [Example 57] | 100
21 | CC(C)Oc1ccc(C(=O)NCCN(C(C)C)C(C)C)cc1 [Example 59] | 47.5
22 | CCCCCc1ccc(C(=O)NCCN(C(C)C)C(C)C)cc1 [Example 62] | 101
23 | CC(C)c1ccc(C(=O)NCCN(C(C)C)C(C)C)cc1 [Example 64] | 72.7

system: not listed separately; assay: MTT: Cell Damaging and Protecting Effect Test; format: cell-based, rabbit (male Japanese White); details: rabbit, gastric corpus mucosa cells, final concentration 10^-4 M, smaller value is better, read-out: MTT: cell damaging rate
Description: MTT: Cell Damaging and Protecting Effect Test
It is confirmed that there is no toxicity in cell level. Those having a toxicity in cell level are inappropriate as an anti-ulcer drug.
A male Japanese White rabbit (2.5 to 3 kg) was anesthetized to death by Nembutal™ and, immediately thereafter, its stomach was removed. The greater curvature of the stomach was incised so as to remove the stomach contents therefrom. After the mucosal surface was washed with HBSS (Hanks' Balanced Salt Solution), the stomach in ice-cooled HBSS was transferred to a laboratory. Then, after the pyloric antrum was removed, the gastric corpus mucosa was separated by a spatula and then minced into 2 to 3 mm^3 pieces in BME (Basal Medium Eagle). Thereafter, these pieces were shaken at 120 to 130 cycles/minute for 15 minutes at 37° C. in BME 60 ml containing 280 U/ml of dispase and 30 to 50 U/ml of collagenase. Here, the concentration of collagenase was appropriately changed for each lot in view of the state of cells. The pieces were washed twice with EBSS (Earle's Balanced Salt Solution) containing 1 mM of EDTA and then shaken in MEM (Minimum Essential Medium) containing 1 mM of EDTA at 37° C. for 5 minutes. Subsequently, they were shaken in the dispase and collagenase having the same concentrations as those mentioned above for 15 minutes so as to remove the supernatant and then further shaken at 37° C. for 50 to 60 minutes at 120 to 130 cycles/minute. Then, after being washed twice with HBSS, Ham F12 containing 2% of Ultrocer G™ was used to attain the concentration of 1×10^6 cells/ml. Thus formed suspension was dispensed in each well of a 96-well plate by 200 μl. The plate was incubated in the atmosphere composed of 5% CO2 and 95% air at 37° C. for three days so as to attain a confluent state and then subjected to MTT assay.
The sample compound was dissolved in DMSO so as to attain a concentration of 10^-2 M and then diluted with HBSS containing 2% of Ultrocer G™ so as to attain a final concentration of 10^-4 M. To each group, which 8 wells were used for, 10 μl of MTT reagent was added immediately after 100 μl of the medium in each well was exchanged for same volume of the resulting solution of the sample compound. After being incubated in an atmosphere composed of 5% CO2 and 95% air at 37° C. for 4 hours, thus formed solution was centrifuged and then its supernatant was discarded. Subsequently, 100 μl of 100% ethanol was added to the residue so as to dissolve MTT formazan. Then, the absorbance (OD: 570 to 630) was measured by a microplate reader. This method utilizes a phenomenon in which MTT is changed to MTT formazan only by mitochondria of living cells so as to change color.
The cell damaging or cell protecting effect of the sample compound at the final concentration of 10^-4 M was expressed as cell damaging rate (%) as follows:
cell damaging rate (%)=(1-(absorbance in sample group/absorbance in control
Accordingly, the smaller value is better in the cell damaging rate.

Row | SMILES | cytotoxicity at 4 h, 100 µM [%]
24 | CCN(CC)CCNC(=O)c1cccc(OC)c1OC/C=C(\C)CCC=C(C)C [Example 31] | 17
25 | CCN(CC)CCNC(=O)c1ccc(OC)cc1OC/C=C(\C)CCC=C(C)C [Example 32] | 28
26 | CCN(CC)CCNC(=O)c1cc(OC)ccc1OC/C=C(\C)CCC=C(C)C [Example 33] | 26
27 | CCN(CC)CCNC(=O)c1cc(F)ccc1OC/C=C(\C)CCC=C(C)C [Example 35] | 25
28 | CCN(CC)CCNC(=O)c1ccc(OC/C=C(\C)CCC=C(C)C)nc1 [Example 50] | 4
29 | CC(C)=CCC/C(C)=C/COc1ccc(C(=O)NCCN(C(C)C)C(C)C)cn1 [Example 51] | 15
30 | CCN(CC)CCNC(=O)c1ccc(CC(C)C)c(O)c1 [Example 56] | 11
31 | CC(C)Cc1cc(C(=O)NCCN(C(C)C)C(C)C)ccc1OCc1ccc(F)cc1 [Example 57] | 43
32 | CC(C)Oc1ccc(C(=O)NCCN(C(C)C)C(C)C)cc1 [Example 59] | 39
33 | CCCCCc1ccc(C(=O)NCCN(C(C)C)C(C)C)cc1 [Example 62] | 40
34 | CC(C)c1ccc(C(=O)NCCN(C(C)C)C(C)C)cc1 [Example 64] | 39
35 | CC(C)N(CCNC(=O)c1ccc(NC(C)(C)C)cc1)C(C)C [Example 68] | -58
